# System: cellular phosphatases (phosphotyrosine phosphatases) in HeLa cells
# Test: TCAL-SAMDI cell-based phosphatase activity assay (HeLa cells on fibronectin nanoarrays, lysis, SAMDI-MS readout)
# Description: Cell-Based Assay for Enzyme Activity. HeLa cells were obtained from ATCC and cultured in DMEM medium supplemented with fetal bovine serum, glutamine, penicillin and streptomycin. All cells were cultured in a humidified incubator at 37° C. and 5% CO2. Cells were trypsinized and suspended in media, and the average number of cells per μL was estimated using a hemocytometer to seed the desired number of cells per spot. The volume of media per spot was 3 μL for all experiments. Cells were cultured on the monolayers presenting fibronectin and the phosphatase peptide substrate on glass slides for 2 hours under standard growth conditions. Lysis buffer (1 μL) was delivered manually to each spot and the lysate was allowed to react with the monolayer for 1 hour at 37° C. in a humidity chamber. […] A solution of 2,4,6-trihydroxyacetopehenone (THAP) in acetone (30 mg/mL) was delivered to each spot on the array and the surfaces were analyzed using an Applied Biosystems 5800 MALDI TOF/TOF instrument with a 20 kV accelerating voltage in positive reflector mode. […]
# HeLa cells were seeded on the fibronectin nanopatterned surfaces and cultured the cells for two hours under standard media conditions (FIG. 4A). […] The mixed monolayer was rinsed with PBS buffer and then treated with 2,4,6-trihydroxyacetophenone (THAP) matrix (30 mg/mL in acetone) and analyzed with SAMDI-MS. […]
structure (smiles),measurement,setting,value
"O=C(CBr)c1ccc(O)cc1 [PTPI-I, PTP Inhibitor I]",decrease in phosphatase activity,"HeLa cells, 300 μM added to cell cultures, two hour culture period, then lysis and SAMDI-MS",92%
same,"phosphatase activity after addition of inhibitor (SAMDI spectra, FIG. 4C)","figure legend says inhibitor added to the lysis buffer, HeLa cells on patterned monolayers",loss of phosphatase activity
